Test results: publication PMC7582905, “Effect of Disulfide Cyclization of Ultrashort Cationic Lipopeptides on Antimicrobial Activity and Cytotoxicity” (International Journal of Molecular Sciences, 2020)
Where a SMILES comes first, the peptide text is derived from it. Bridges are numbered along the chain shown (N, C = ends). The star is where a group is joined. Palmitoyl = CCCCCCCCCCCCCCCC(=O)*

Tests used:
[1] = RP-HPLC determination of peptide hydrophobicity; format: physicochemical; conditions: 0.1% TFA; for reduced retention time t’R: RP-HPLC retention as measure of hydrophobicity, Waters X-Bridge Shield RP-18 3.0 × 100 mm, 3.5 μm, linear 20–65% acetonitrile in water over 30 min, 0.5 mL/min, 25.0 °C, UV 214 nm, 1 g/L, triplicate
Procedure: The peptides were analyzed by RP-HPLC to determine relative hydrophobicity vs. retention time of each compound. In general, more hydrophobic lipopeptides will elute later than hydrophilic ones. Using this simple rule enables comparison of hydrophobicity by reduced retention times (t’R) and differences in retention time between the cyclic analog and its linear parent lipopeptide (Table 1). It can be deduced that the presence of cystine moiety has led to increased hydrophobicity. All cyclic lipopeptides are more hydrophobic than their linear counterparts but the effect of disulfide cyclization on retention is different in each pair. The highest increase in retention was noticed for the shortest lipopeptides L1 (C16-KKK-NH2) and C1 (C16-CKKKC-NH2). The differences between lipopeptides with one arginine residue indicate that its position is crucial for retention and therefore hydrophobicity. To learn how the arginine position affects hydrophobicity, the retention time of compound L2 (C16-KKKK-NH2) or C2 (C16-CKKKKC-NH2) was subtracted from that of the lipopeptides with one arginine residue, linear (L3, L4, L5, L6) or cyclic (C3, C4, C5, C6), respectively. In Figure 2 the effect of arginine position on retention time is related to unsubstituted lipopeptide.
To determine peptide hydrophobicity, a Waters Alliance e2695 system with a Waters 2998 PDA Detector (software-Empower 3, Waters, Milford, MA, USA) was used. All analyses were carried out on a Waters X-Bridge Shield RP-18 column (3.0 × 100 mm, 3.5 μm particle size, 130 Å pore size). The Shield Technology column with embedded polar groups was used to minimize interactions of unreacted silanol groups with basic lipopeptides. The peptides were dissolved in water (0.1% TFA, v/v) up to a concentration of 1 g/L. UV detection at 214 nm was used, and samples (10 μL) were eluted with a linear 20–65% acetonitrile gradient in deionized water over 30 min at 25.0 ± 0.1 °C. The mobile phase flow rate was 0.5 mL/min. Both eluents contained 0.1% (v/v) of TFA. Each peptide sample was analyzed in triplicate. Maximum standard deviation and coefficient of variation were 0.042 and 0.25%, respectively.

[2] = tested on: Candida glabrata ATCC 15126; format: cell-based; conditions: ATCC 15126, 24 h
Procedure: (§1) The Staphylococcus aureus ATCC 25923, Staphylococcus epidermidis ATCC 14990, Escherichia coli ATCC 25922, Pseudomonas aeruginosa ATCC 9027, Candida albicans ATCC 10231, Candida glabrata ATCC 15126, Candida lipolytica PCM 2680-FY, and Candida tropicalis PCM 2709-FY strains were acquired from the Polish Collection of Microorganisms (PCM, Polish Academy of Sciences, Wrocław, Poland) and from the American Type Culture Collection (ATCC). All the strains were stored at −80 °C in Roti-Store cryo vials and before the tests were transferred into fresh Mueller–Hinton broth (MHB, Biocorp, Warsaw, Poland) for bacteria or RPMI-1640 (Sigma-Aldrich, Steinheim, Germany) for fungi and incubated for 24 h at 37 °C. Then, the cultures were seeded on Mueller–Hinton agar (BioMaxima, Lublin, Poland) or Sabouraud dextrose agar (SDA, BioMaxima, Lublin, Poland) plates, respectively, and incubated as just mentioned. These agar cultures were used for further microbiological assays. Cell densities for all assays were adjusted spectrophotometrically (Multiskan GO Microplate Spectrophotometer, Thermo Fisher Scientific, Vantaa, Finland) at 600 and 660 nm for bacteria and fungi, respectively.
(§2) MBECs were determined on 96-well polystyrene flat-bottom plates. For this purpose, 24 h cultures of microorganisms were diluted to obtain final density 5.0 × 10^5 CFU/mL and 2.0 × 10^5 CFU/mL of bacteria and fungi, respectively. Briefly, 100 µL of cell suspension was added into the test plates. After 24 h of incubation at 37 °C the wells were rinsed three times with a phosphate buffer saline (PBS, pH 7.4) to remove non-adherent cells. Subsequently, 100 μL of the test compounds in concentration range (0.5–256 μg/mL) were added to each well. After 24 h of incubation at 37 °C, 20 μL of a cell viability reagent was added (resazurin, 4 g/L; Sigma Aldrich, St. Louis, MO, USA). The MBEC was read after 1 h. The determined values were recorded as the lowest concentration at which the reduction of resazurin (from blue to pink) was lower or equal to 10 ± 0.5% as compared to the positive (100%) and negative (0%) controls. The reduction was monitored by measuring absorbance at 570 nm (reduced) and 600 nm (oxidized) using a microplate spectrophotometer (Multiskan GO Microplate Spectrophotometer, Thermo Fisher Scientific, Vantaa, Finland). All experiments were conducted in triplicate.

[3] = tested on: Candida lipolytica PCM 2680-FY; format: cell-based; conditions: 24 h
Procedure: as §1, §2

[4] = tested on: Candida tropicalis PCM 2709-FY; format: cell-based; conditions: PCM 2709-FY, 24 h
Procedure: as §1, §2

[5] = tested on: human cervical adenocarcinoma cell line (HeLa S3); test: MTT assay; format: cell-based; conditions: 24 h incubation at 37 °C, six replicates per concentration, repeated at least twice
Procedure: (§3) To assess the cytotoxicity of the test lipopeptides (IC50), the classic MTT assay on 96-well polystyrene plates was performed for human keratinocytes (HaCaT) and human cervical adenocarcinoma cell line (HeLa S3) acquired from the ATCC. The assay utilizes colorimetric determination of the cell metabolic activity and the color intensity reflects the number of live cells that can be measured spectrophotometrically. The cell line was cultured in a Dulbecco’s modified Eagle Medium (Invitrogen) supplemented with 10% fetal bovine serum (v/v), 100 units/mL of penicillin, 100 μg/mL of streptomycin, and 2 mM l-glutamine and was stored at 37 °C in a humidified 5% CO2 incubator. Briefly, a day after plating of 500 cells per well, a series of concentrations (0.1–200 μg/mL) of the test compounds were applied. DMSO was added to the control cells at a final concentration of 1.0% (v/v), which was related to the maximal concentration of the solvent compounds used in the experiment. After 24 h of incubation with the lipopeptides at 37 °C in a humidified 5% CO2 incubator, a medium containing 1 mg/mL of MTT (3-(4,5-dimethylthiazol-2-yl)-2,5-diphenyltetrazolium bromide) was added to the wells up to a final concentration of 0.5 mg/mL. Subsequently, the plates were incubated at 37 °C for 4 h. Then, the medium was removed by suction, and the formazan product was solubilized with DMSO. The background absorbance at 630 nm was subtracted from that at 570 nm for each well (Epoch, BioTek Instruments, Winooski, VT, USA). Six replicates were conducted for each concentration. All experiments were repeated at least twice and the resulting IC50 values were calculated with a GraFit 7 software (v. 7.0, Erithacus, Berkley, CA, USA).

[6] = tested on: human keratinocytes (HaCaT); test: MTT assay; format: cell-based; conditions: 24 h incubation at 37 °C, six replicates per concentration, repeated at least twice
Procedure: as §3

SMILES	reduced retention time t’R [1] [min]	MBEC C. glabrata [2] [µg/mL]	MBEC C. lipolytica [3] [µg/mL]	MBEC C. tropicalis [4] [µg/mL]	HeLa IC50 [5] [µg/mL]	HaCaT IC50 [6] [µg/mL]	∆tR ([1]; tR of cyclic analog − tR of parent lipopeptide, RP-HPLC, RP-18, 20–65% acetonitrile over 30 min)
CCCCCCCCCCCCCCCC(=O)N[C@@H](CCCCN)C(=O)N[C@@H](CCCCN)C(=O)N[C@@H](CCCCN)C(=O)N[C@@H](CCCNC(=N)N)C(N)=O [L6, C16-KKKR-NH2] (Palmitoyl-KKKR-NH2)	14.89	128	32	128	3.6 ± 0.5	7.5 ± 0.8	
CCCCCCCCCCCCCCCC(=O)N[C@@H](CCCCN)C(=O)N[C@@H](CCCNC(=N)N)C(=O)N[C@@H](CCCCN)C(=O)N[C@@H](CCCCN)C(N)=O [L4, C16-KRKK-NH2] (Palmitoyl-KRKK-NH2)	15.18	128	32	64	3.0 ± 0.6	4.3 ± 0.9	
CCCCCCCCCCCCCCCC(=O)N[C@@H](CCCNC(=N)N)C(=O)N[C@@H](CCCCN)C(=O)N[C@@H](CCCCN)C(=O)N[C@@H](CCCCN)C(N)=O [L3, C16-RKKK-NH2] (Palmitoyl-RKKK-NH2)	15.21	128	32	32	8.4 ± 1.7	23.6 ± 3.4	
CCCCCCCCCCCCCCCC(=O)N[C@H]1CSSC[C@@H](C(N)=O)NC(=O)[C@H](CCCCN)NC(=O)[C@H](CCCCN)NC(=O)[C@H](CCCNC(=N)N)NC(=O)[C@H](CCCCN)NC1=O [C4, C16-CKRKKC-NH2] (Palmitoyl-CKRKKC-NH2; disulfide 1-6)	16.10	64	16	32	27.5 ± 3.4	33.8 ± 3.1	+0.92 min
